According to EP4232018B1 (priority 2020, dated 2022):
“Also recorded” adds a separate entry of the source.

Key:
[1] = test system: African swine fever virus; format: cell-based
SARS-CoV-2 = format: cell-based

Row | SMILES | inhibiting African swine fever virus [1] | viral multiplication (rosetta) [1] | effect on cell viability (A549 NSCLC cells) | inhibition of the SARS-CoV-2 reporter gene (SARS-CoV-2)
1 | Cc1ccc(C(C)C)c(OC(=O)C[N+](C)(C)CCCCCCCCCC[N+](C)(C)CC(=O)Oc2cc(C)ccc2C(C)C)c1.[Cl-].[Cl-] [Compound V, N1,N10-bis(2-(2-isopropyl-5-methylphenoxy)-2-oxoethyl)-N1,N1,N10,N10-tetramethyldecane-1,10-diaminium dichloride] | effective at inhibiting African swine fever virus | Cells grew well and were protected from African swine fever virus infection. No rosetta were observed; also recorded: Cells grew well, but protection against ASFV infection decreased and some rosetta became visible | – | –
2 | Cc1ccc(C(C)C)cc1OC(=O)C[N+](C)(C)CCCCCCCCCC[N+](C)(C)CC(=O)Oc1cc(C(C)C)ccc1C.[Cl-].[Cl-] [Compound IV, N1,N10-bis(2-(5-isopropyl-2-methylphenoxy)-2-oxoethyl)-N1,N1,N10,N10-tetramethyldecane-1,10-diaminium dichloride] | effective at inhibiting African swine fever virus | Cells grew well and were protected from African swine fever virus infection. No rosetta were observed; also recorded: Cells grew well, but protection against ASFV infection decreased and some rosetta became visible | does not affect cell viability | inhibits the SARS-CoV-2 reporter gene in a dose dependent manner
